The numbers were not newly measured in patent US20050148034A1, “Methods for identification of modulators of angiogenesis, compounds discovered thereby, and methods of treatment using the compounds” (priority 2002, published 2005), which cites them from elsewhere.

In the series the test system is human umbilical cord blood vessel rings. The following applies: 10^−5 M, compared with the DMSO (0.5%) diluent control; cited from earlier work.

As for `C[C@]12CCC(=O)C=C1CC[C@@H]1[C@@H]2[C@@H](O)C[C@@]2(C)[C@H]1CC[C@]2(O)C(=O)CO` [hydrocortisone], the inhibition of angiogenesis entry is “partially inhibited angiogenesis”.
